According to ChEMBL document CHEMBL1909046, “DrugMatrix in vitro pharmacology data”:

Experiments:
[1] = target: T1, Muscarinic acetylcholine receptor M4 (Homo sapiens, UniProt P08173); type: cell membranes, CHO-K1, Membrane; conditions: cho-k1; note: in other assays of this panel Not Active means under 50% inhibition at 10 µM
T1 sequence (P08173 whole entry): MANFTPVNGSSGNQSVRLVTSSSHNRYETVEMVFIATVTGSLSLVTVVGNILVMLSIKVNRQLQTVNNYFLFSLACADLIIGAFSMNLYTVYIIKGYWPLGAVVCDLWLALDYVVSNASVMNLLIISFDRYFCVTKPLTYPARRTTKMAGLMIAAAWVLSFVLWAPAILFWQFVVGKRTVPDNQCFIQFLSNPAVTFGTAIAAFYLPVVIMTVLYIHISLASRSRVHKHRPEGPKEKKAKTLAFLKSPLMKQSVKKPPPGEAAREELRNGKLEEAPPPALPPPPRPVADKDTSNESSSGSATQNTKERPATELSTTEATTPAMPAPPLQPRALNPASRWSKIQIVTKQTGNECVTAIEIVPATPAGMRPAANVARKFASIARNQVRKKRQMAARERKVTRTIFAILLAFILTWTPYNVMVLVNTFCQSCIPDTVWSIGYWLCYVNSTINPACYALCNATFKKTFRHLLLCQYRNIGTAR

[2] = DRUGMATRIX: Atrial Natriuretic Factor (ANF) radioligand binding (ligand: [125I] ANF (rat)); type: cell membranes, Cavia porcellus, Dunkin-Hartley, Adrenal gland, Membrane; conditions: Not Active = under 50% inhibition at 10 µM
[3] = target: T2, Adenosine receptor A3 (Homo sapiens, UniProt P0DMS8); type: cell membranes, CHO-K1, Membrane; conditions: cho-k1;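 note: radioligand binding assay with AB-MECA serving as the labeled ligand; in other assays of this panel Not Active means under 50% inhibition at 10 µM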
T2 sequence (P0DMS8 whole entry): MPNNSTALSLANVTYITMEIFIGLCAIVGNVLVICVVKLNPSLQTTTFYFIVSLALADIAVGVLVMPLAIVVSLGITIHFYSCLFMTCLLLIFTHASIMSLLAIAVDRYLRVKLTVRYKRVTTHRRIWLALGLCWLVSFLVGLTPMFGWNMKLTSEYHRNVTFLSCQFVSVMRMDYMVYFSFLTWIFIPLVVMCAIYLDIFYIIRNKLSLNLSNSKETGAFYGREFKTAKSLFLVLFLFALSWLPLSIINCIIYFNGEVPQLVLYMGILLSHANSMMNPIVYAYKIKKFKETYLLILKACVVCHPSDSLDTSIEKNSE

[4] = target: T3, Muscarinic acetylcholine receptor M2 (Homo sapiens, UniProt P08172); type: cell membranes, CHO-K1, Membrane; conditions: cho-k1; note: in other assays of this panel Not Active means under 50% inhibition at 10 µM
T3 sequence (P08172 whole entry): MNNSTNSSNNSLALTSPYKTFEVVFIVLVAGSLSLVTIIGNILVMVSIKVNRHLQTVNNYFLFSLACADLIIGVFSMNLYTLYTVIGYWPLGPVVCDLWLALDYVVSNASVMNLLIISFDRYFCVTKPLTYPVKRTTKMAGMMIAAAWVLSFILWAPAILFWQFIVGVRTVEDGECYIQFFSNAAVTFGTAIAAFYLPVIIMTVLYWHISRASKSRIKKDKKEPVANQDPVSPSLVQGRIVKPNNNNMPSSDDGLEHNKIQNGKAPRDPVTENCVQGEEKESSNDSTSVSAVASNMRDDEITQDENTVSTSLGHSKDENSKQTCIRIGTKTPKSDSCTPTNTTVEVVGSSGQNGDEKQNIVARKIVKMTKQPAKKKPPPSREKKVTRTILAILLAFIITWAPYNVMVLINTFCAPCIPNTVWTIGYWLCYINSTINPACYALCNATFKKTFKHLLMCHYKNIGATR

[5] = target: 5-hydroxytryptamine receptor 1B (Rattus norvegicus, UniProt P28564); type: cell membranes, Wistar, Cerebral cortex, Membrane; note: in other assays of this panel Not Active means under 50% inhibition at 10 µM
Sequence of 5-hydroxytryptamine receptor 1B (P28564 whole entry): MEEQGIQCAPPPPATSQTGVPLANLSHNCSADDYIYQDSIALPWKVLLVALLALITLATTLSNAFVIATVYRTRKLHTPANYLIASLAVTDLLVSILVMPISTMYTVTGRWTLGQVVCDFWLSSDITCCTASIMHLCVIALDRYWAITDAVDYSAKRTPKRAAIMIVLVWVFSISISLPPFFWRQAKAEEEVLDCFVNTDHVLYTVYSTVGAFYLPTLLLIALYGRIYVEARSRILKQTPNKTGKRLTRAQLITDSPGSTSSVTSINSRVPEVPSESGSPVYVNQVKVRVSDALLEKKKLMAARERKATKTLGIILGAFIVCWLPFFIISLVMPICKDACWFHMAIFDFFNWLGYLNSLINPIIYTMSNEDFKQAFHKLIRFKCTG

C=C1CC[C@H](O)C/C1=C/C=C1\CCC[C@]2(C)[C@@H]([C@H](C)CCCC(C)C)CC[C@@H]12 [CHOLECALCIFEROL]
Not Active: IC50 [1] | IC50 [2] | Ki [2] | IC50 [3] | IC50 [4] | IC50 [5]

C[N+](C)(C)CCO.[Cl-] [CHOLINE CHLORIDE]
Not Active: IC50 [1] | IC50 [2] | Ki [2] | IC50 [3] | IC50 [4] | IC50 [5]

CCOC(=O)C(C)(C)Oc1ccc(Cl)cc1 [CLOFIBRATE]
Not Active: IC50 [1] | IC50 [2] | Ki [2] | IC50 [3] | IC50 [4] | IC50 [5]

CC(=O)OCC(=O)[C@@]1(O)CC[C@H]2[C@@H]3CCC4=CC(=O)CC[C@]4(C)[C@H]3C(=O)C[C@@]21C [CORTISONE ACETATE]
Not Active: IC50 [1] | IC50 [2] | Ki [2] | IC50 [3] | IC50 [4] | IC50 [5]

O=c1ccc2ccccc2o1 [COUMARIN]
Not Active: IC50 [1] | IC50 [2] | Ki [2] | IC50 [3] | IC50 [4] | IC50 [5]

C[C@@H]1C[C@@H]([C@H](O)CC2CC(=O)NC(=O)C2)C(=O)[C@@H](C)C1 [CYCLOHEXIMIDE]
Not Active: IC50 [1] | IC50 [2] | Ki [2] | IC50 [3] | IC50 [4] | IC50 [5]

C/C=C/C[C@@H](C)[C@@H](O)[C@H]1C(=O)N[C@@H](CC)C(=O)N(C)CC(=O)N(C)[C@@H](CC(C)C)C(=O)N[C@@H](C(C)C)C(=O)N(C)[C@@H](CC(C)C)C(=O)N[C@@H](C)C(=O)N[C@H](C)C(=O)N(C)[C@@H](CC(C)C)C(=O)N(C)[C@@H](CC(C)C)C(=O)N(C)[C@@H](C(C)C)C(=O)N1C [CYCLOSPORINE]
Not Active: IC50 [1] | IC50 [2] | Ki [2] | IC50 [3] | IC50 [4] | IC50 [5]

CN(C)/N=N/c1[nH]cnc1C(N)=O [DACARBAZINE]
Not Active: IC50 [1] | IC50 [2] | Ki [2] | IC50 [3] | IC50 [4] | IC50 [5]

COc1ccc2c(c1)[C@]13CCCC[C@@H]1[C@H](C2)N(C)CC3 [DEXTROMETHORPHAN]
Not Active: IC50 [1] | IC50 [2] | Ki [2] | IC50 [3] | IC50 [4] | IC50 [5]

CC(=O)Nc1c(I)c(NC(C)=O)c(I)c(C(=O)O)c1I [DIATRIZOIC ACID]
Not Active: IC50 [1] | IC50 [2] | Ki [2] | IC50 [3] | IC50 [4] | IC50 [5]

COP(=O)(OC)OC=C(Cl)Cl [DICHLORVOS]
Not Active: IC50 [1] | IC50 [2] | Ki [2] | IC50 [3] | IC50 [4] | IC50 [5]

O=C(O)Cc1ccccc1Nc1c(Cl)cccc1Cl [DICLOFENAC]
Not Active: IC50 [1] | IC50 [2] | Ki [2] | IC50 [3] | IC50 [4] | IC50 [5]
